ChEMBL document CHEMBL1138510, “Antimalarial peroxide dyads from natural artemisinin and hydroxyalkylated 1,2,4-trioxanes” (2009)

Tested on: Plasmodium falciparum
Test: Antiplasmodial activity against Plasmodium falciparum NF54 infected human A+ erythrocytes after 72 hrs as IC ratio relative to dihydroartemisinin
Assay type: functional

| SMILES | Ratio IC50 |
| --- | --- |
| C=C(C)[C@@H]1OOC(C)(C)O[C@@H]1CCO[C@H]1C[C@@H]2O[C@]3(C)CC[C@H]4[C@H](C)CC[C@@H]([C@H]1C)[C@@]24OO3 | 0.54 |
| C=C(C)[C@@H]1OOC2(CCCCC2)O[C@@H]1CCOC1C[C@@H]2O[C@]3(C)CC[C@H]4[C@H](C)CC[C@@H]([C@H]1C)[C@@]24OO3 (mixture of isomers) | 0.49 |
